Laboratory results: patent publication US20230226005A1, “Methods of Treating, Ameliorating, Shortening Duration, and/or Reversing Symptoms and/or Complications of a Coronavirus Infection” (Yale University, priority 2020, published 2023)

System: COVID-19 infection
Assay: Phase IIa study: COVID-19 PRO daily self-score, symptom severity score (items 1-33, 0-132)
Type: in vivo

## CN(C)C(=O)COC(=O)Cc1ccc(OC(=O)c2ccc(NC(=N)N)cc2)cc1 [camostat, 4-[[4-[(Aminoiminomethyl)amino]benzoyl]oxy]benzeneacetic acid 2-(dimethylamino)-2-oxoethyl ester]
COVID-19 PRO self-score, vs placebo
  acceleration of COVID-19 symptom resolution: up to 5 days
Day 0
  COVID-19 symptom severity score raw Mean: 34.9
  symptom score, Fitzmaurice mixed effects model, A: Camostat arm: 31.81 (2.17)
  symptom score, Fitzmaurice mixed effects model, B − A (placebo − camostat): 0
  symptom severity score, Negative binomial model, A: Camostat arm: 31.81 (2.56)
  symptom severity score, Negative binomial model, B − A: 0
Day 1
  COVID-19 symptom severity score raw Mean: 30.4
  symptom score, Fitzmaurice mixed effects model, A: Camostat arm: 27.95 (2.59)
  symptom score, Fitzmaurice mixed effects model, B − A (placebo − camostat): −0.73 (2.76)
  symptom severity score, ANCOVA linear mixed model, A: Camostat arm: −2.93 (2.11)
  symptom severity score, ANCOVA linear mixed model, B − A (placebo − camostat): −1.83 (2.99)
  symptom severity score, Negative binomial model, A: Camostat arm: 28.22 (3.06)
  symptom severity score, Negative binomial model, B − A: 0.95 (0.1)
Day 2
  COVID-19 symptom severity score raw Mean: 29.7
  symptom score, Fitzmaurice mixed effects model, A: Camostat arm: 26.89 (2.63)
  symptom score, Fitzmaurice mixed effects model, B − A (placebo − camostat): −3.09 (2.8)
  symptom severity score, ANCOVA linear mixed model, A: Camostat arm: −3.96 (2.16)
  symptom severity score, ANCOVA linear mixed model, B − A (placebo − camostat): −4.22 (3.02)
  symptom severity score, Negative binomial model, A: Camostat arm: 27.28 (3.05)
  symptom severity score, Negative binomial model, B − A: 0.85 (0.1)
Day 3
  COVID-19 symptom severity score raw Mean: 24.1
  symptom score, Fitzmaurice mixed effects model, A: Camostat arm: 22.97 (2.6)
  symptom score, Fitzmaurice mixed effects model, B − A (placebo − camostat): −0.36 (2.79)
  symptom severity score, ANCOVA linear mixed model, A: Camostat arm: −8.01 (2.13)
  symptom severity score, ANCOVA linear mixed model, B − A (placebo − camostat): −1.34 (3.01)
  symptom severity score, Negative binomial model, A: Camostat arm: 23.35 (3.02)
  symptom severity score, Negative binomial model, B − A: 0.96 (0.13)
Day 4
  COVID-19 symptom severity score raw Mean: 20.8
  symptom score, Fitzmaurice mixed effects model, A: Camostat arm: 19.69 (2.6)
  symptom score, Fitzmaurice mixed effects model, B − A (placebo − camostat): 0.89 (2.8)
  symptom severity score, ANCOVA linear mixed model, A: Camostat arm: −11.29 (2.13)
  symptom severity score, ANCOVA linear mixed model, B − A (placebo − camostat): −0.1 (3.02)
  symptom severity score, Negative binomial model, A: Camostat arm: 20.17 (2.89)
  symptom severity score, Negative binomial model, B − A: 1 (0.17)
Day 5
  COVID-19 symptom severity score raw Mean: 17.7
  symptom score, Fitzmaurice mixed effects model, A: Camostat arm: 16.57 (2.6)
  symptom score, Fitzmaurice mixed effects model, B − A (placebo − camostat): 5.84 (2.79)
  symptom severity score, ANCOVA linear mixed model, A: Camostat arm: −14.41 (2.13)
  symptom severity score, ANCOVA linear mixed model, B − A (placebo − camostat): 4.84 (3.01)
  symptom severity score, Negative binomial model, A: Camostat arm: 17.14 (2.63)
  symptom severity score, Negative binomial model, B − A: 1.27 (0.24)
Day 6
  COVID-19 symptom severity score raw Mean: 14.1
  symptom score, Fitzmaurice mixed effects model, A: Camostat arm: 12.53 (2.62)
  symptom score, Fitzmaurice mixed effects model, B − A (placebo − camostat): 6.9 (2.81)
  symptom severity score, ANCOVA linear mixed model, A: Camostat arm: −18.43 (2.15)
  symptom severity score, ANCOVA linear mixed model, B − A (placebo − camostat): 5.89 (3.02)
  symptom severity score, Negative binomial model, A: Camostat arm: 13.4 (2.45)
  symptom severity score, Negative binomial model, B − A: 1.38 (0.29)
Day 7
  COVID-19 symptom severity score raw Mean: 12.6
  symptom score, Fitzmaurice mixed effects model, A: Camostat arm: 11.37 (2.67)
  symptom score, Fitzmaurice mixed effects model, B − A (placebo − camostat): 4.68 (2.84)
  symptom severity score, ANCOVA linear mixed model, A: Camostat arm: −19.64 (2.2)
  symptom severity score, ANCOVA linear mixed model, B − A (placebo − camostat): 3.71 (3.05)
  symptom severity score, Negative binomial model, A: Camostat arm: 12.09 (2.79)
  symptom severity score, Negative binomial model, B − A: 1.23 (0.3)
Day 8
  COVID-19 symptom severity score raw Mean: 11.4
  symptom score, Fitzmaurice mixed effects model, A: Camostat arm: 9.57 (2.67)
  symptom score, Fitzmaurice mixed effects model, B − A (placebo − camostat): 5.4 (2.85)
  symptom severity score, ANCOVA linear mixed model, A: Camostat arm: −21.42 (2.2)
  symptom severity score, ANCOVA linear mixed model, B − A (placebo − camostat): 4.43 (3.06)
  symptom severity score, Negative binomial model, A: Camostat arm: 10.6 (2.64)
  symptom severity score, Negative binomial model, B − A: 1.28 (0.34)
Day 9
  COVID-19 symptom severity score raw Mean: 10.7
  symptom score, Fitzmaurice mixed effects model, A: Camostat arm: 8.86 (2.67)
  symptom score, Fitzmaurice mixed effects model, B − A (placebo − camostat): 5.13 (2.85)
  symptom severity score, ANCOVA linear mixed model, A: Camostat arm: −22.13 (2.2)
  symptom severity score, ANCOVA linear mixed model, B − A (placebo − camostat): 4.16 (3.06)
  symptom severity score, Negative binomial model, A: Camostat arm: 9.94 (2.43)
  symptom severity score, Negative binomial model, B − A: 1.25 (0.33)
Day 10
  COVID-19 symptom severity score raw Mean: 10
  symptom score, Fitzmaurice mixed effects model, A: Camostat arm: 8.24 (2.67)
  symptom score, Fitzmaurice mixed effects model, B − A (placebo − camostat): 4.67 (2.85)
  symptom severity score, ANCOVA linear mixed model, A: Camostat arm: −22.75 (2.2)
  symptom severity score, ANCOVA linear mixed model, B − A (placebo − camostat): 3.7 (3.06)
  symptom severity score, Negative binomial model, A: Camostat arm: 9.36 (2.56)
  symptom severity score, Negative binomial model, B − A: 1.2 (0.36)
Day 11
  COVID-19 symptom severity score raw Mean: 9.3
  symptom score, Fitzmaurice mixed effects model, A: Camostat arm: 7.25 (2.69)
  symptom score, Fitzmaurice mixed effects model, B − A (placebo − camostat): 4.44 (2.87)
  symptom severity score, ANCOVA linear mixed model, A: Camostat arm: −23.77 (2.22)
  symptom severity score, ANCOVA linear mixed model, B − A (placebo − camostat): 3.5 (3.08)
  symptom severity score, Negative binomial model, A: Camostat arm: 8.49 (2.3)
  symptom severity score, Negative binomial model, B − A: 1.17 (0.35)
